Experimental data as given in PubChem BioAssay (NCI).
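Compound exposure: 48 hours, 5 concentrations, 96-well plates. GI50 = concentration required for 50% inhibition of growth. TGI denotes the concentration required for complete inhibition of growth.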

Key:
Experiment in all cases: growth of human tumour cells (NCI), 48 h
SN12C renal = tested on: SN12C renal
RXF 393 renal = tested on: RXF 393 renal
IGROV1 ovarian = tested on: IGROV1 ovarian
M14 melanoma = tested on: M14 melanoma
KM12 colon = tested on: KM12 colon
UO-31 renal = tested on: UO-31 renal
UACC-257 melanoma = tested on: UACC-257 melanoma
A549 NSCLC = tested on: A549 NSCLC
MCF7 breast = tested on: MCF7 breast
NCI-H460 lung = tested on: NCI-H460 lung
CCRF-CEM leukemia = tested on: CCRF-CEM leukemia
SF-295 CNS = tested on: SF-295 CNS
A498 renal = tested on: A498 renal
SW-620 colon = tested on: SW-620 colon
CAKI-1 renal = tested on: CAKI-1 renal
SF-539 CNS = tested on: SF-539 CNS
OVCAR-5 ovarian = tested on: OVCAR-5 ovarian
MDA-MB-435 = tested on: MDA-MB-435
LOX IMVI melanoma = tested on: LOX IMVI melanoma
NCI-H23 lung = tested on: NCI-H23 lung
HOP-62 NSCLC = tested on: HOP-62 NSCLC
HCT-116 colon = tested on: HCT-116 colon
HCT-15 colon = tested on: HCT-15 colon
MDA-MB-231 breast = tested on: MDA-MB-231 breast
COLO 205 colon = tested on: COLO 205 colon
K-562 leukemia = tested on: K-562 leukemia
OVCAR-3 ovarian = tested on: OVCAR-3 ovarian
OVCAR-8 ovarian = tested on: OVCAR-8 ovarian
HT29 colon = tested on: HT29 colon
UACC-62 melanoma = tested on: UACC-62 melanoma
TK-10 renal = tested on: TK-10 renal
HOP-92 NSCLC = tested on: HOP-92 NSCLC
SF-268 CNS = tested on: SF-268 CNS
EKVX NSCLC = tested on: EKVX NSCLC
SK-MEL-2 melanoma = tested on: SK-MEL-2 melanoma
BT-549 breast = tested on: BT-549 breast
PC-3 prostate = tested on: PC-3 prostate
NCI/ADR-RES ovarian = tested on: NCI/ADR-RES ovarian
HS 578T breast = tested on: HS 578T breast
U251 CNS = tested on: U251 CNS
NCI-H522 lung = tested on: NCI-H522 lung
SNB-19 CNS = tested on: SNB-19 CNS
SK-MEL-5 melanoma = tested on: SK-MEL-5 melanoma
HL-60(TB) leukemia = tested on: HL-60(TB) leukemia
SK-OV-3 ovarian = tested on: SK-OV-3 ovarian
RPMI-8226 leukemia = tested on: RPMI-8226 leukemia
SK-MEL-28 melanoma = tested on: SK-MEL-28 melanoma
ACHN renal = tested on: ACHN renal
DU-145 prostate = tested on: DU-145 prostate
786-0 renal = tested on: 786-0 renal
SNB-75 CNS = tested on: SNB-75 CNS
HCC-2998 colon = tested on: HCC-2998 colon
T-47D breast = tested on: T-47D breast
MOLT-4 leukemia = tested on: MOLT-4 leukemia

## CCCCCC[C@H](C)Nc1nc2ccccc2c2occc12
SN12C renal
  GI50: 11.2 µM
  TGI: 23.9 µM
RXF 393 renal
  GI50: 12.6 µM
  TGI: 30.6 µM
IGROV1 ovarian
  GI50: 0.787 µM
  TGI: 13.2 µM
M14 melanoma
  GI50: 7.88 µM
  TGI: 20.8 µM
KM12 colon
  GI50: 10.6 µM
  TGI: 32.3 µM
UO-31 renal
  GI50: 4.55 µM
  TGI: 19.2 µM
UACC-257 melanoma
  GI50: 3.24 µM
  TGI: 16.3 µM
A549 NSCLC
  GI50: 8.3 µM
  TGI: 26.2 µM
MCF7 breast
  GI50: > 100 µM
  TGI: > 100 µM
NCI-H460 lung
  GI50: > 100 µM
  TGI: > 100 µM
CCRF-CEM leukemia
  GI50: 4.33 µM
  TGI: 21.1 µM
SF-295 CNS
  GI50: 6.01 µM
  TGI: 25.5 µM
A498 renal
  GI50: 11.3 µM
  TGI: 25.8 µM
SW-620 colon
  GI50: 5.46 µM
  TGI: 22.2 µM
CAKI-1 renal
  GI50: 10.6 µM
  TGI: 26.3 µM
SF-539 CNS
  GI50: 4.16 µM
  TGI: 15.2 µM
OVCAR-5 ovarian
  GI50: 5.54 µM
  TGI: 20.3 µM
MDA-MB-435
  GI50: 14.7 µM
  TGI: 35.2 µM
LOX IMVI melanoma
  GI50: 8.61 µM
  TGI: 21.4 µM
NCI-H23 lung
  GI50: 0.576 µM
  TGI: 7.23 µM
HOP-62 NSCLC
  GI50: 11.5 µM
  TGI: 23.9 µM
HCT-116 colon
  GI50: 3.2 µM
  TGI: 13.3 µM
HCT-15 colon
  GI50: 10.1 µM
  TGI: 22 µM
MDA-MB-231 breast
  GI50: 10.6 µM
  TGI: 24 µM
COLO 205 colon
  GI50: 34.4 µM
  TGI: > 100 µM
K-562 leukemia
  GI50: 16.3 µM
  TGI: > 100 µM
OVCAR-3 ovarian
  GI50: 6.27 µM
  TGI: 24.3 µM
OVCAR-8 ovarian
  GI50: 10.8 µM
  TGI: 26.3 µM
HT29 colon
  GI50: 8.15 µM
  TGI: > 100 µM
UACC-62 melanoma
  GI50: 11.6 µM
  TGI: 24.1 µM
TK-10 renal
  GI50: 6.46 µM
  TGI: 20.9 µM
HOP-92 NSCLC
  GI50: 5.18 µM
  TGI: 20.2 µM
SF-268 CNS
  GI50: > 100 µM
  TGI: > 100 µM
EKVX NSCLC
  GI50: 2.26 µM
  TGI: 7.04 µM
SK-MEL-2 melanoma
  GI50: 14.8 µM
  TGI: 32.6 µM
BT-549 breast
  GI50: 4.38 µM
  TGI: 18.5 µM
PC-3 prostate
  GI50: 14.8 µM
  TGI: 35.5 µM
NCI/ADR-RES ovarian
  GI50: 0.147 µM
  TGI: 12.8 µM
HS 578T breast
  GI50: 12.8 µM
  TGI: 37.7 µM
U251 CNS
  GI50: 9.94 µM
  TGI: 21.7 µM
NCI-H522 lung
  GI50: 2.26 µM
  TGI: 13.9 µM
SNB-19 CNS
  GI50: 29.7 µM
  TGI: > 100 µM
SK-MEL-5 melanoma
  GI50: 3.66 µM
  TGI: 18 µM
HL-60(TB) leukemia
  GI50: 11.9 µM
  TGI: 37.8 µM
SK-OV-3 ovarian
  GI50: 16.5 µM
  TGI: 36.2 µM
RPMI-8226 leukemia
  GI50: 3.74 µM
  TGI: 44.3 µM
SK-MEL-28 melanoma
  GI50: 21.2 µM
  TGI: 47.2 µM
ACHN renal
  GI50: 11.7 µM
  TGI: 23.9 µM
DU-145 prostate
  GI50: 3.34 µM
  TGI: 14 µM
786-0 renal
  GI50: 9.87 µM
  TGI: 21.7 µM
SNB-75 CNS
  GI50: 14.8 µM
  TGI: 30.5 µM
HCC-2998 colon
  GI50: 1.4 µM
  TGI: 8.94 µM
T-47D breast
  GI50: 33.2 µM
  TGI: 61.8 µM
MOLT-4 leukemia
  GI50: 3.47 µM
  TGI: 16.2 µM
